# Earlier results, collected in publication PMC7287799 (Molecules, 2020).
# Tested on: E. coli IMPDH
smiles,measurement,value
NC(=O)c1ncn([C@@H]2O[C@H](CO)[C@@H](O)[C@H]2O)c1O [Mizoribine],Ki,500 nM
